From article PMC10569036

Assay: shake flask on a mixture of 185; loss from the water phase only; LC-Orbitrap peak areas
Conditions: room

Q: With `Oc1c(Cl)ccc(Cl)c1Cl` as the compound, how does the “log partition 1-octanol / HPLC water, unbuffered, traces of methanol / DMSO” value (“log partition 1-octanol / HPLC water” for short) read?
A: -0.2337 log10

Q: What about the “log partition butyl acetate / HPLC water, unbuffered, traces of methanol / DMSO” value (shortened to “log partition butyl acetate / HPLC water”) of the same compound?
A: -1.606 log10

Q: And the “log partition chloroform / HPLC water, unbuffered, traces of methanol / DMSO” value (“log partition chloroform / HPLC water” below)?
A: 0.7523 log10

Q: What about the “log partition cyclohexane / HPLC water, unbuffered, traces of methanol / DMSO” value (shortened to “log partition cyclohexane / HPLC water”) of the same compound?
A: 0.2263 log10

Q: And the “log partition dichloromethane / HPLC water, unbuffered, traces of methanol / DMSO” value?
A: -0.3412 log10

Q: What about the “log partition n-hexane / HPLC water, unbuffered, traces of methanol / DMSO” value (from here on “log partition n-hexane / HPLC water”) of the same compound?
A: -0.04129 log10

Q: And the “log partition n-octane / HPLC water, unbuffered, traces of methanol / DMSO” value (from here on “log partition n-octane / HPLC water”)?
A: 0.4223 log10

Q: And the “log partition n-undecane / HPLC water, unbuffered, traces of methanol / DMSO” value (from here on “log partition n-undecane / HPLC water”)?
A: -0.1707 log10

Q: And the “log partition oleylalcohol / HPLC water, unbuffered, traces of methanol / DMSO” value (“log partition oleylalcohol / HPLC water” below)?
A: -0.8397 log10

Q: What about the “log partition toluene / HPLC water, unbuffered, traces of methanol / DMSO” value (“log partition toluene / HPLC water” for short) of the same compound?
A: -0.4023 log10

Q: With `O=P(OC(CCl)CCl)(OC(CCl)CCl)OC(CCl)CCl` as the compound, how does the “log partition 1-octanol / HPLC water” value read?
A: 0.3708 log10

Q: And the “log partition butyl acetate / HPLC water” value?
A: 0.4116 log10

Q: What about the “log partition chloroform / HPLC water” value of the same compound?
A: 0.2335 log10

Q: What about the “log partition cyclohexane / HPLC water” value of the same compound?
A: 0.5355 log10

Q: What about the “log partition dichloromethane / HPLC water, unbuffered, traces of methanol / DMSO” value of the same compound?
A: 0.1218 log10

Q: What about the “log partition n-hexane / HPLC water” value of the same compound?
A: 0.2465 log10

Q: What about the “log partition n-octane / HPLC water” value of the same compound?
A: 0.2541 log10

Q: What about the “log partition n-undecane / HPLC water” value of the same compound?
A: 0.3474 log10

Q: And the “log partition oleylalcohol / HPLC water” value?
A: 0.1893 log10

Q: What about the “log partition toluene / HPLC water” value of the same compound?
A: 0.1777 log10

Q: For `CCCCCCC(O)CCCCCCCCCCC(=O)OC` (centres unmarked), which “log partition 1-octanol / HPLC water” value is on record?
A: -0.3995 log10

Q: What about the “log partition butyl acetate / HPLC water” value of the same compound?
A: -0.5958 log10

Q: And the “log partition chloroform / HPLC water” value?
A: -0.2735 log10

Q: What about the “log partition cyclohexane / HPLC water” value of the same compound?
A: -0.4754 log10

Q: And the “log partition dichloromethane / HPLC water, unbuffered, traces of methanol / DMSO” value?
A: -1.47 log10

Q: And the “log partition n-hexane / HPLC water” value?
A: -1.341 log10

Q: What about the “log partition n-octane / HPLC water” value of the same compound?
A: -1.53 log10

Q: And the “log partition n-undecane / HPLC water” value?
A: -1.718 log10

Q: And the “log partition oleylalcohol / HPLC water” value?
A: -0.7143 log10

Q: And the “log partition toluene / HPLC water” value?
A: -1.19 log10

Q: Which “log partition 1-octanol / HPLC water” value does the source give for `CCCCNC(=S)NCCCC` here?
A: 1.103 log10

Q: And the “log partition butyl acetate / HPLC water” value?
A: 0.744 log10

Q: And the “log partition chloroform / HPLC water” value?
A: 0.6525 log10

Q: And the “log partition cyclohexane / HPLC water” value?
A: -0.1972 log10

Q: What about the “log partition dichloromethane / HPLC water, unbuffered, traces of methanol / DMSO” value of the same compound?
A: 0.6427 log10

Q: What about the “log partition n-hexane / HPLC water” value of the same compound?
A: -0.2041 log10

Q: And the “log partition n-octane / HPLC water” value?
A: 0.07134 log10

Q: And the “log partition n-undecane / HPLC water” value?
A: 0.1833 log10

Q: And the “log partition oleylalcohol / HPLC water” value?
A: 0.9527 log10

Q: What about the “log partition toluene / HPLC water” value of the same compound?
A: 0.4176 log10

Q: For `CC(=O)Oc1ccc(C(C)=O)cc1`, which “log partition 1-octanol / HPLC water” value is on record?
A: 0.8444 log10

Q: What about the “log partition butyl acetate / HPLC water” value of the same compound?
A: 0.4506 log10

Q: What about the “log partition chloroform / HPLC water” value of the same compound?
A: 0.8919 log10

Q: And the “log partition cyclohexane / HPLC water” value?
A: -0.4431 log10

Q: And the “log partition dichloromethane / HPLC water, unbuffered, traces of methanol / DMSO” value?
A: 0.1616 log10

Q: What about the “log partition n-hexane / HPLC water” value of the same compound?
A: -0.7051 log10

Q: And the “log partition n-octane / HPLC water” value?
A: -0.2813 log10

Q: What about the “log partition n-undecane / HPLC water” value of the same compound?
A: -0.7594 log10

Q: What about the “log partition oleylalcohol / HPLC water” value of the same compound?
A: 0.2271 log10

Q: What about the “log partition toluene / HPLC water” value of the same compound?
A: -0.3508 log10
